This note sets out measurements from patent US20040082602A1, “Substituted thiophene carboxamide compounds for the treatment of inflammation” (priority 2002, published 2004).

In this assay the target is T1, IKK-2 (Homo sapiens, UniProt O14920).
T1 construct: made in house; host or cells: baculovirus (pFastBac) in insect cells; SF9
T1 sequence (O14920 1-756): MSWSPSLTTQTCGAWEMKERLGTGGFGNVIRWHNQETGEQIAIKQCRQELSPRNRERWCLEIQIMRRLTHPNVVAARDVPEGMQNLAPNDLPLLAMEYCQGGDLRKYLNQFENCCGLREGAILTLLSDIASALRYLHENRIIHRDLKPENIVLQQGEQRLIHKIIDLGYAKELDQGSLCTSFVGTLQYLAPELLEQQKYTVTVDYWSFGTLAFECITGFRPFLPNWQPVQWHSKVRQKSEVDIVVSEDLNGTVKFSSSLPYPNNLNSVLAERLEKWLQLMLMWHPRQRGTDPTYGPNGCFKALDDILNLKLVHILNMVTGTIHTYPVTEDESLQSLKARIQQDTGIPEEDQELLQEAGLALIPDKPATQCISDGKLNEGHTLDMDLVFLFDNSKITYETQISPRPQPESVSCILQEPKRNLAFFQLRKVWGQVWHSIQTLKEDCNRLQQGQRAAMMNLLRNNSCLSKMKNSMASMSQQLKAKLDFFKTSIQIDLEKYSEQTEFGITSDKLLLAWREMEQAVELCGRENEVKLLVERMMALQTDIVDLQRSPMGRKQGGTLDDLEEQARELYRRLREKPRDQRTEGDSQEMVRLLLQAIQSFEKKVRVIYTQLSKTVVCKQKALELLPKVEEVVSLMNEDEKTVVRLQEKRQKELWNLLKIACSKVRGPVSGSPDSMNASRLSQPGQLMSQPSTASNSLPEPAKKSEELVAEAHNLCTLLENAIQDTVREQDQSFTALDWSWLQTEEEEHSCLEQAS
Put plainly: IKK-2 Resin assay (IKKβ Resin Enzyme Assay). In kind it is biochemical. The following applies: rhIKK2 homodimer, 5 μM biotinylated IκBα peptide, 1 μM ATP, 25° C., 30 min. From the text: cDNAs of human IKK1 and IKK2 were amplified by reverse transcriptase-polymerase chain reaction from human placental RNA (Clonetech). hIKK1 was subcloned into pFastBac HTa (Life Technologies) and expressed as N-terminal His6-tagged fusion protein. The hIKK2 cDNA was amplified using a reverse oligonucleotide primer which incorporated the peptide sequence for a FLAG-epitope tag at the C-terminus of the IKK2 coding region (DYKDDDDKD). The hIKK2:FLAG cDNA was subcloned into the baculovirus vector pFastBac. The rhIKK2 ([…]) mutant was constructed in the same vector used for wild type rhIKK2 using a QuikChange™ mutagenesis kit (Stratagene). Viral stocks of each construct were used to infect insect cells grown in 40L suspension culture. […] Cell lysates were stored at −80° C. until purification of the recombinant proteins was undertaken as described below.
A 10-liter culture of baculovirus-expressing IKK2 tagged with FLAG peptide was centrifuged and the cell pellet (MOI=0.1 and 1=72 hrs) was re-suspended in buffer A. These cells were microfluidized, and centrifuged at 100,000×g for 45 min. Supernatant was passed over a G-25 column equilibrated with Buffer A. Protein peak was collected and incubated with anti-FLAG affinity resin on a rotator overnight in buffer B. The resin was washed in batch with 10-15 bed volumes of buffer C. Washed resin was poured into a column and rhIKK2 homodimer was eluted using 5 bed volumes of buffer B containing FLAG peptide. 5 mM DTT, 0.1% NP-40 and BSA (concentrated to 0.1% in final amount) was added to the eluted enzyme before concentrating in using an Amicon membrane with a molecular weight cut-off of 30 kDa. Enzyme was aliquoted and stored at −80° C.
IKKβ kinase activity was measured using a biotinylated IκBα peptide (Gly-LeuLys-Lys-Glu-Arg-Leu-Leu-Asp-Asp-Arg-His-Asp-Ser32-Gly-Leu-Asp-Ser36-Met Lys-Asp-Glu-Glu) (American Peptide Co.). 20 ul of the standard reaction mixture contained 5 μM biotinylated IκBα peptide, 0.1 μCi/reaction [γ^33P] ATP (Amersham) (about 1×10^5 cpm), 1 μM ATP (Sigma), 1 mM DTT (Sigma), 2 mM MgCl2 (Sigma), 2 mM MnCl2 (Sigma), 10 mM NaF (Sigma), 25 mM Hepes (Sigma) buffer, pH 7.6 and 20 μl enzyme solution and 10 ul inhibitor in a final volume of […]. After incubation at 25° C. for 30 min, 150 μl resin (Dowex anion-exchange resin AGIX8 200-400 mesh) in 900 mM formate, pH 3.0 was added to each well to stop the reaction. Resin was allowed to settle for one hour and 50 ul of supernatant was removed to a Micolite-2 flat bottom plate (Dynex). 150 μl of scintillation fluid (Microscint 40) (Packard) was added to each well. Incorporation of [γ-^33P] ATP was measured using a Top-Count NXT (Packard).

Structures can show the parent of a compound that is named as a salt. Bounds are passed on as bounds.

Broadly, the IC50 is the midpoint of a concentration-inhibition curve. A higher IC50 goes with weaker potency. `COc1ccc2c(c1)-c1sc(C(N)=O)c(N)c1CC2` [Example 2, 3-amino-8-methoxy-4,5-dihydronaphtho[1,2-b]thiophene-2-carboxamide]: the IC50 is 1 to 10 µM.
As for `NCCCNc1c(C(N)=O)sc2c1CCc1ccccc1-2` [Example 4, 3-[(3-aminopropyl)amino]-4,5-dihydronaphtho[1,2-b]thiophene-2-carboxamide hydrochloride], the IC50 was in the range of 10 to 20 µM.
As to `NC(=O)Nc1sc2c(c1C(N)=O)CCc1ccccc1-2` [Example 8, 2-[(aminocarbonyl)amino]-4,5-dihydronaphtho[1,2-b]thiophene-3-carboxamide], the IC50 was no more than 1 µM.
As for `NC(=O)Nc1c(C(N)=O)sc2c1CCc1ccccc1-2` [Example 5, 3-[(aminocarbonyl)amino]4,5-dihydronaphtho[1,2-b]thiophene-2-carboxamide], the figure is 10 to 20 µM.
With `N#Cc1c(N)sc2c1CCc1ccccc1-2` [Example 6, 2-amino-4,5-dihydronaphtho[1,2-b]thiophene-3-carbonitrile] the figure was 10 to 20 µM.
As for `NCCNc1c(C(N)=O)sc2c1CCc1ccccc1-2` [Example 3, 3-[(2-aminoethyl)amino]-4,5-dihydronaphtho[1,2-b]thiophene-2-carboxamide hydrobromide], the figure is 1 to 10 µM; as for `CC(=O)Nc1sc2c(c1C(N)=O)CCc1ccccc1-2` [Example 7, 2-(acetylamino)-4,5-dihydronaphtho[1,2-b]thiophene-3-carboxamide], 10 to 20 µM.
Compound `NC(=O)c1sc2c(c1N)CCc1ccccc1-2` [Example 1, 3-amino-4,5-dihydronaphtho[1,2-b]thiophene-2-carboxamide] registered an IC50 of 10 to 20 µM.
